Consider twelve compounds from ChEMBL document CHEMBL4052617, “Antibacterial activity of N-methylbenzofuro[3,2-b]quinoline and N-methylbenzoindolo[3,2-b]-quinoline derivatives and study of their mode of action” (2017).

What is called MIC is the lowest concentration found to suppress growth. Higher therefore signals weaker potency.

Active and inactive are the calls of the source. No cut-off for these calls is given here.

In assay [1] the test system is Escherichia coli. The experiment in a line: Antibacterial activity against Escherichia coli ATCC […] expressing NDM-1 beta-lactamase after 18 hrs by Mueller-Hinton broth microdilution method. In kind it is functional.
The next assay has as its system Klebsiella pneumoniae. The assay can be described thus: Antibacterial activity against Klebsiella pneumoniae ATCC BAA2470 expressing NDM-1 beta-lactamase after 18 hrs by Mueller-Hinton broth microdilution method. In kind it is functional. The note with it: ATCC BAA2470, 18 h. In general terms: Broth dilution looks for growth in wells or tubes with falling amounts of substance.

The subject of assay [2] is Enterococcus faecium. The assay can be described thus: Antibacterial activity against antibiotic-susceptile Enterococcus faecium ATCC 49624 after 18 hrs by brain heart infusion broth microdilution method. In kind it is functional. The note with it: ATCC 49624, 18 h.
The next assay has as its system Pseudomonas aeruginosa. The assay can be described thus: Antibacterial activity against multidrug-resistant Pseudomonas aeruginosa ATCC BAA2108 after 18 hrs by Mueller-Hinton broth microdilution method. The following applies: ATCC BAA2108, 18 h. In kind it is functional.
The subject of assay [3] is Staphylococcus aureus. The assay can be described thus: Antibacterial activity against methicillin-resistant Staphylococcus aureus ATCC BAA41 after 18 hrs by cation adjusted Mueller-Hinton broth microdilution method. The note with it: ATCC BAA41, 18 h. The format is functional.
The test system of assay [4] is Staphylococcus aureus. The experiment in a line: Antibacterial activity against Staphylococcus aureus ATCC 29213 after 18 hrs by cation adjusted Mueller-Hinton broth microdilution method. The note with it: ATCC 29213, 18 h. The format is functional.
Assay [5] concerns Escherichia coli. The experiment in a line: Antibacterial activity against Escherichia coli ATCC 25922 after 18 hrs by Mueller-Hinton broth microdilution method. In kind it is functional. The note with it: ATCC 25922, 18 h.
The subject of the next assay is Bacillus subtilis. The experiment in a line: Antibacterial activity against Bacillus subtilis 168 after 18 hrs by Mueller-Hinton broth microdilution method. The note with it: subsp. subtilis str. 168, 18 h. The format is functional.
Assay [6] has as its system Enterococcus faecium. The experiment in a line: Antibacterial activity against vancomycin-resistant Enterococcus faecium ATCC 700221 after 18 hrs by brain heart infusion broth microdilution method. In kind it is functional. The following applies: ATCC 700221, 18 h.
Assay [7] concerns the target T1, Cell division protein FtsZ (Staphylococcus aureus) (UniProt P0A031).
T1 sequence (whole entry): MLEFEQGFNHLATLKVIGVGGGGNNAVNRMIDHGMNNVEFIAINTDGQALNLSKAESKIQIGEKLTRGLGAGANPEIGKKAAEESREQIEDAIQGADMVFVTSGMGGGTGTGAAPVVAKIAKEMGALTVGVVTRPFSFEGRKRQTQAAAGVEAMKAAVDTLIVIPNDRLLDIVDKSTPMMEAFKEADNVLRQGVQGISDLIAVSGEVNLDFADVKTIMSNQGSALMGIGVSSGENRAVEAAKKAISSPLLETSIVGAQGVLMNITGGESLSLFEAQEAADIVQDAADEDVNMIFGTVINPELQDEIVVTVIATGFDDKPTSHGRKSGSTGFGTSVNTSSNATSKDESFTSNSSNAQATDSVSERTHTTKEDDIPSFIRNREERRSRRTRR
The assay can be described thus: Inhibition of recombinant N-terminal His6-tagged Staphylococcus aureus FtzS expressed in Escherichia coli BL21 (DE3) cells assessed as reduction in protein protofilament bundling at 8 ug/ml preincubated for 10 mins followed by GTP addition after 15 mins by phosphotungstic acid staining based transmission electron microscopic method.

In assay [8] the target is T1, Cell division protein FtsZ (Staphylococcus aureus). The assay can be described thus: Inhibition of recombinant N-terminal His6-tagged Staphylococcus aureus FtzS expressed in Escherichia coli BL21 (DE3) cells assessed as reduction in protein polymer thickness at 8 ug/ml preincubated for 10 mins followed by GTP addition after 15 mins by phosphotungstic acid staining based transmission electron microscopic method.

Assay [9] has the same target. The experiment in a line: Inhibition of recombinant N-terminal His6-tagged Staphylococcus aureus ATCC 29213 FtzS polymerization expressed in Escherichia coli BL21 (DE3) cells at 16 ug/ml in presence of GTP by fluorescence spectrometry method.

Regarding `C[n+]1c2ccccc2c(Nc2ccc(F)cc2)c2oc3ccccc3c21.[I-]`, the MIC in the assay with Escherichia coli [1] was 12 µg/mL; with Klebsiella pneumoniae it was > 64 µg/mL; in the assay on Enterococcus faecium [2], 8 µg/mL; with Pseudomonas aeruginosa, > 64 µg/mL; against Staphylococcus aureus [3] it was 6 µg/mL; against Staphylococcus aureus [4], 6 µg/mL. Besides, the MIC was determined as 12 µg/mL in the assay on Escherichia coli [5], 6 µg/mL with Bacillus subtilis and 8 µg/mL with Enterococcus faecium [6].
For `Cc1ccccc1Nc1c2ccccc2[n+](C)c2c1oc1ccccc12.[I-]`, the MIC against Escherichia coli [1] is 16 µg/mL; with Klebsiella pneumoniae it was > 64 µg/mL; against Enterococcus faecium [2] it was 12 µg/mL; against Pseudomonas aeruginosa, > 64 µg/mL; against Staphylococcus aureus [3], 8 µg/mL; in the assay with Staphylococcus aureus [4] it was 8 µg/mL. In addition, the values for the MIC in the assay on Escherichia coli [5], against Bacillus subtilis and against Enterococcus faecium [6] were 16 µg/mL, 8 µg/mL and 12 µg/mL, respectively.
For the compound `CCOc1ccc(Nc2c3ccccc3[n+](C)c3c2oc2ccccc23)cc1.[I-]`, the MIC in the assay with Escherichia coli [1] stood at 8 µg/mL; with Klebsiella pneumoniae, 64 µg/mL; in the assay with Enterococcus faecium [2] it was 8 µg/mL; against Pseudomonas aeruginosa, 64 µg/mL; in the assay on Staphylococcus aureus [3] it was 4 µg/mL; in the assay with Staphylococcus aureus [4] it was 4 µg/mL. For the same compound, the MIC stood at 8 µg/mL in the assay on Escherichia coli [5], 4 µg/mL against Bacillus subtilis and 8 µg/mL in the assay on Enterococcus faecium [6].
Consider `C[n+]1c2ccccc2c(Nc2ccc(Cl)cc2)c2oc3ccccc3c21.[I-]`, for which the MIC was 12 µg/mL against Escherichia coli [1]; > 64 µg/mL against Klebsiella pneumoniae; 8 µg/mL in the assay with Enterococcus faecium [2]; > 64 µg/mL against Pseudomonas aeruginosa; 6 µg/mL against Staphylococcus aureus [3]; 6 µg/mL with Staphylococcus aureus [4]. In addition, the MIC is 12 µg/mL against Escherichia coli [5], 6 µg/mL in the assay with Bacillus subtilis and 8 µg/mL with Enterococcus faecium [6].
Turning to `Cc1ccc(Nc2c3ccccc3[n+](C)c3c2oc2ccccc23)cc1F.[I-]`, the MIC in the assay with Escherichia coli [1] is 12 µg/mL; against Klebsiella pneumoniae, > 64 µg/mL; in the assay on Enterococcus faecium [2], 8 µg/mL; against Pseudomonas aeruginosa it was > 64 µg/mL; with Staphylococcus aureus [3] it was 6 µg/mL; in the assay with Staphylococcus aureus [4], 6 µg/mL. The results for the MIC with Escherichia coli [5], in the assay on Bacillus subtilis and in the assay on Enterococcus faecium [6] were 12 µg/mL, 6 µg/mL and 8 µg/mL, respectively.
For the compound `COc1ccc(Nc2c3ccccc3[n+](C)c3c2oc2ccccc23)cc1.[I-]`, the MIC with Escherichia coli [1] was 8 µg/mL; in the assay with Klebsiella pneumoniae, 64 µg/mL; in the assay on Enterococcus faecium [2] it was 6 µg/mL; against Pseudomonas aeruginosa, 64 µg/mL; against Staphylococcus aureus [3], 4 µg/mL; against Staphylococcus aureus [4] it was 4 µg/mL. The results for the MIC against Escherichia coli [5], with Bacillus subtilis and in the assay on Enterococcus faecium [6] were 8 µg/mL, 4 µg/mL and 6 µg/mL, respectively. Besides, the inhibition result in [7], in assay [8] and in assay [9] was “Active” throughout.
On to `Cc1cc(C)cc(Nc2c3ccccc3[n+](C)c3c2[nH]c2ccccc23)c1.[I-]`, for which the MIC in the assay with Escherichia coli [1] was 8 µg/mL; against Klebsiella pneumoniae it was > 64 µg/mL; with Enterococcus faecium [2] it was 8 µg/mL; in the assay with Pseudomonas aeruginosa, > 64 µg/mL; against Staphylococcus aureus [3], 4 µg/mL; in the assay on Staphylococcus aureus [4], 4 µg/mL. Further, the MIC against Escherichia coli [5] stood at 8 µg/mL; in the assay on Bacillus subtilis it was 4 µg/mL; in the assay with Enterococcus faecium [6] it was 8 µg/mL.
For the compound `CCOc1ccc(Nc2c3ccccc3[n+](C)c3c2[nH]c2ccccc23)cc1.[I-]`, the MIC stood at 6 µg/mL against Escherichia coli [1]; 48 µg/mL against Klebsiella pneumoniae; 4 µg/mL against Enterococcus faecium [2]; 48 µg/mL in the assay on Pseudomonas aeruginosa; 2 µg/mL in the assay on Staphylococcus aureus [3]; 2 µg/mL in the assay on Staphylococcus aureus [4]. Besides, the figures for the MIC against Escherichia coli [5], in the assay with Bacillus subtilis and in the assay with Enterococcus faecium [6] were 6 µg/mL, 2 µg/mL and 4 µg/mL, respectively.
Take `Cc1ccc(Nc2c3ccccc3[n+](C)c3c2oc2ccccc23)cc1C.[I-]`: the MIC with Escherichia coli [1] is 12 µg/mL; against Klebsiella pneumoniae, > 64 µg/mL; with Enterococcus faecium [2], 8 µg/mL; with Pseudomonas aeruginosa it was > 64 µg/mL; against Staphylococcus aureus [3], 6 µg/mL; against Staphylococcus aureus [4] it was 6 µg/mL. In addition, the MIC amounted to 12 µg/mL with Escherichia coli [5], 6 µg/mL in the assay on Bacillus subtilis and 8 µg/mL against Enterococcus faecium [6].
With `Cc1cc(C)cc(Nc2c3ccccc3[n+](C)c3c2oc2ccccc23)c1.[I-]`, the MIC in the assay on Escherichia coli [1] is 12 µg/mL; in the assay with Klebsiella pneumoniae it was > 64 µg/mL; with Enterococcus faecium [2], 8 µg/mL; against Pseudomonas aeruginosa it was > 64 µg/mL; against Staphylococcus aureus [3], 6 µg/mL; with Staphylococcus aureus [4] it was 6 µg/mL. Besides, the figures for the MIC against Escherichia coli [5], with Bacillus subtilis and in the assay on Enterococcus faecium [6] were 12 µg/mL, 6 µg/mL and 8 µg/mL, respectively.
Regarding `CCOc1ccccc1Nc1c2ccccc2[n+](C)c2c1[nH]c1ccccc12.[I-]`, the MIC was determined as 8 µg/mL in the assay with Escherichia coli [1]; 64 µg/mL against Klebsiella pneumoniae; 6 µg/mL with Enterococcus faecium [2]; 64 µg/mL in the assay on Pseudomonas aeruginosa; 4 µg/mL in the assay on Staphylococcus aureus [3]; 4 µg/mL against Staphylococcus aureus [4]. For the same compound, the MIC in the assay with Escherichia coli [5] turned out to be 8 µg/mL; in the assay on Bacillus subtilis it was 4 µg/mL; in the assay on Enterococcus faecium [6], 6 µg/mL.
Consider `CCOc1ccccc1Nc1c2ccccc2[n+](C)c2c1oc1ccccc12.[I-]`, for which the MIC in the assay on Escherichia coli [1] is 12 µg/mL; in the assay with Klebsiella pneumoniae, > 64 µg/mL; against Enterococcus faecium [2], 8 µg/mL; in the assay on Pseudomonas aeruginosa, > 64 µg/mL; against Staphylococcus aureus [3] it was 6 µg/mL; in the assay on Staphylococcus aureus [4] it was 6 µg/mL. The MIC came to 12 µg/mL in the assay with Escherichia coli [5], 6 µg/mL in the assay on Bacillus subtilis and 8 µg/mL against Enterococcus faecium [6].
